Results published in patent US12371454B2, “Cyclic peptide compound having Kras inhibitory action” (priority 2019, dated 2025).
Starred links: 1 amine or outer side, 2 acyl side, 3 side chain; linkers in the order of their positions; H or OH if unused. Positions of bridges follow the written chain, without caps; N, C: chain ends. Non-standard residues stand in square brackets, D forms with d. Residues, ends and D or L forms follow the SMILES beside them. *: point of attachment. hPhe(3-Cl-4-CF3) = N[C@@H](CCc1ccc(C(F)(F)F)c(Cl)c1)C(=O)O; hPhe(3-F,4-CF3) = N[C@@H](CCc1ccc(C(F)(F)F)c(F)c1)C(=O)O; hPhe(4-CF3) = N[C@@H](CCc1ccc(C(F)(F)F)cc1)C(=O)O; X5 = CC(C)(C)NC(=O)COC[C@H](CC(=O)[*:1])N[*:2]; NMePhe(3-CN) = CN[C@@H](Cc1cccc(C#N)c1)C(=O)O; NMePhe(4-Cl) = CN[C@@H](Cc1ccc(Cl)cc1)C(=O)O; NMePhe(2-CN) = CN[C@@H](Cc1ccccc1C#N)C(=O)O; NMePhe(4-Me) = CN[C@@H](Cc1ccc(C)cc1)C(=O)O; NMePhe(3-F) = CN[C@@H](Cc1cccc(F)c1)C(=O)O; hPhe(3-Cl) = N[C@@H](CCc1cccc(Cl)c1)C(=O)O; hPhe(4-Cl) = N[C@@H](CCc1ccc(Cl)cc1)C(=O)O; NMedβ3hAla = C[C@H](CC(=O)[*:2])N(C)[*:1]; Oic = O=C(O)[C@@H]1C[C@@H]2CCCC[C@@H]2N1; NMeGly(cPent) = CN[C@H](C(=O)O)C1CCCC1; Phe(3-I) = N[C@@H](Cc1cccc(I)c1)C(=O)O; Pro(4,4-F2) = O=C(O)[C@@H]1CC(F)(F)CN1; NMeGly(cBu) = CN[C@H](C(=O)O)C1CCC1; NMeCha = CN[C@@H](CC1CCCCC1)C(=O)O; NMeChg = CN[C@H](C(=O)O)C1CCCCC1; hPhe = N[C@@H](CCc1ccccc1)C(=O)O; NMeD = CN[C@@H](CC(=O)O)C(=O)O; NMeL = CN[C@@H](CC(C)C)C(=O)O; Chg = N[C@H](C(=O)O)C1CCCCC1; NMeV = CN[C@H](C(=O)O)C(C)C; d(β3hA) = C[C@@H](N)CC(=O)O; NMeS = CN[C@@H](CO)C(=O)O; hSer = N[C@@H](CCO)C(=O)O; Morpholide = C1CN(*)CCO1; NMeA = CN[C@@H](C)C(=O)O; NMeAib = CNC(C)(C)C(=O)O; Nle = CCCC[C@H](N)C(=O)O; Piperidide = C1CCN(*)CC1; Ac5c = NC1(C(=O)O)CCCC1; Aze = O=C(O)[C@@H]1CCN1; Ac4c = NC1(C(=O)O)CCC1; Nleu = CC(C)CNCC(=O)O; Aib = CC(C)(N)C(=O)O; X47 = Fc1cncc(C*)c1; Sar = CNCC(=O)O; Propyl = CCC*

Molecular target: T1, Kras and SOS1 (biotin-tagged human Kras loaded with GDP, His-tagged human SOS1) (Homo sapiens, UniProt P01116, G12D)
T1 construct: made in house; host or cells: E. coli (stated for Kras only)
T1 sequence (P01116 1-188 isoform P01116-2 G12D): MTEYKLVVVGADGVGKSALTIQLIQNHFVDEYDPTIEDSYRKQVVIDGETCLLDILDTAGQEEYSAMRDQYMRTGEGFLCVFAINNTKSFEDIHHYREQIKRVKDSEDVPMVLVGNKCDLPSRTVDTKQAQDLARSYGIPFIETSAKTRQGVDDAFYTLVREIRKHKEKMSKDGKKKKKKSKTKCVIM
Test: Protein-protein interaction inhibition between Kras and SOS1 (KrasGl2D-SOS PPI) using AlphaScreen
Format: binding
Conditions: AlphaScreen; biotin-tagged human Kras loaded with GDP, His-tagged human SOS1; read-out: KRAS G12D-SOS PPI IC50
Outline: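 AlphaScreen format: Ni donor beads capture His-SOS1, streptavidin acceptor beads capture biotinylated Kras (E. coli-expressed, GDP-loaded post-purification). Excite 680 nm, read 520-620 nm.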

| SMILES | IC50 [nM] |
| --- | --- |
| CC[C@H](C)[C@@H]1NC(=O)[C@H](CC(C)C)N(C)C(=O)C[C@@H](C)NC(=O)[C@H](CC(C)C)N(C)C(=O)C(C)(C)NC(=O)[C@@H]2C[C@@H]3CCCC[C@@H]3N2C(=O)[C@H](CCc2ccc(C(F)(F)F)cc2)NC(=O)CN(C)C(=O)[C@H](Cc2ccc(Cl)cc2)N(C)C(=O)CN(C)C(=O)CN(C)C1=O [Compound 922] (cyclo([Aib][NMeL][d(β3hA)][NMeL]I[Sar][Sar][NMePhe(4-Cl)][Sar][hPhe(4-CF3)][Oic])) | 230 |
| CC[C@H](C)[C@@H]1NC(=O)[C@H](CC(C)C)N(C)C(=O)C[C@@H](C(=O)N2CCCCC2)N(C)C(=O)[C@H](CC(C)C)NC(=O)C(C)(C)N(C)C(=O)[C@H](CCc2ccccc2)NC(=O)[C@H](Cc2cccc(I)c2)NC(=O)CN(C)C(=O)[C@H](CC2CCCCC2)N(C)C(=O)[C@@H]2CCN2C(=O)CN(C)C1=O [Compound 931] ([NMeL]I[Sar][Aze][NMeCha][Sar][Phe(3-I)][hPhe][NMeAib]L[NMeD]-Piperidide; lactam N-11) | 270 |
| CC[C@H](C)[C@@H]1NC(=O)[C@H](CC(C)C)N(C)C(=O)C[C@@H](C)NC(=O)[C@H](C2CCCC2)N(C)C(=O)[C@H](C(C)C)NC(=O)[C@@H]2CCCN2C(=O)[C@H](CCc2ccc(C(F)(F)F)c(Cl)c2)NC(=O)CN(C)C(=O)[C@H](Cc2ccc(C)cc2)N(C)C(=O)[C@@H]2CCN2C(=O)[C@H](C)N(C)C1=O [Compound 933] (cyclo([Aze][NMePhe(4-Me)][Sar][hPhe(3-Cl-4-CF3)]PV[NMeGly(cPent)][d(β3hA)][NMeL]I[NMeA])) | 83 |
| CCCC[C@@H]1NC(=O)[C@H](Cc2cccc(I)c2)NC(=O)CN(C)C(=O)[C@H](Cc2ccc(Cl)cc2)N(C)C(=O)CN(C)C(=O)CN(C)C(=O)[C@H]([C@@H](C)CC)NC(=O)[C@H](CC(C)C)N(C)C(=O)C[C@@H](C(=O)N2CCCCC2)N(C)C(=O)[C@H](CC(C)C)NC(=O)[C@H](Cc2ccc(Cl)cc2)N(C)C1=O [Compound 934] ([NMeL]I[Sar][Sar][NMePhe(4-Cl)][Sar][Phe(3-I)][Nle][NMePhe(4-Cl)]L[NMeD]-Piperidide; lactam N-11) | 34 |
| CC[C@H](C)[C@@H]1NC(=O)[C@H](CC(C)C)N(C)C(=O)C[C@@H](C(=O)N2CCCCC2)N(C)C(=O)[C@H](C(C)C)N(C)C(=O)C2(CCCC2)NC(=O)[C@@H]2CCCN2C(=O)[C@H](CCc2ccc(C(F)(F)F)c(Cl)c2)NC(=O)CN(C)C(=O)[C@H](Cc2ccccc2C#N)N(C)C(=O)CN(C)C(=O)CN(C)C1=O [Compound 935] ([NMeL]I[Sar][Sar][NMePhe(2-CN)][Sar][hPhe(3-Cl-4-CF3)]P[Ac5c][NMeV][NMeD]-Piperidide; lactam N-11) | 6 |
| CC[C@H](C)[C@@H]1NC(=O)[C@H](CC(C)C)N(C)C(=O)C[C@@H](C(=O)N2CCCCC2)N(C)C(=O)[C@H](C2CCCCC2)N(C)C(=O)C2(CCCC2)NC(=O)[C@@H]2CCCN2C(=O)[C@H](CCc2ccc(C(F)(F)F)c(Cl)c2)NC(=O)CN(C)C(=O)[C@H](C2CCC2)N(C)C(=O)CN(C)C(=O)CN(C)C1=O [Compound 936] ([NMeL]I[Sar][Sar][NMeGly(cBu)][Sar][hPhe(3-Cl-4-CF3)]P[Ac5c][NMeChg][NMeD]-Piperidide; lactam N-11) | 1.1 |
| CC(C)C[C@H]1C(=O)N[C@@H](C2CCCCC2)C(=O)N(C)CC(=O)N(C)CC(=O)N(C)[C@@H](CC2CCCCC2)C(=O)N(C)CC(=O)N[C@@H](CCc2ccc(C(F)(F)F)c(Cl)c2)C(=O)N2CCC[C@H]2C(=O)NC2(CCCC2)C(=O)N(C)[C@@H](C(C)C)C(=O)N[C@H](C)CC(=O)N1C [Compound 937] (cyclo([Ac5c][NMeV][d(β3hA)][NMeL][Chg][Sar][Sar][NMeCha][Sar][hPhe(3-Cl-4-CF3)]P)) | 250 |
| COCC[C@@H]1NC(=O)[C@H](CC(C)C)N(C)C(=O)C[C@@H](C(=O)N2CCCCC2)N(C)C(=O)[C@H](C2CCCCC2)N(C)C(=O)C2(CCCC2)NC(=O)[C@@H]2CCCN2C(=O)[C@H](CCc2ccc(C(F)(F)F)c(Cl)c2)NC(=O)CN(C)C(=O)[C@H](CC2CCCCC2)N(C)C(=O)CN(C)C(=O)CN(C)C1=O [Compound 941] ([NMeL][hSer](Me)[Sar][Sar][NMeCha][Sar][hPhe(3-Cl-4-CF3)]P[Ac5c][NMeChg][NMeD]-Piperidide; lactam N-11) | 3.3 |
| CC[C@H](C)[C@@H]1NC(=O)[C@H](C)N(C)C(=O)C[C@@H](C(=O)N2CCCCC2)N(C)C(=O)[C@H](C(C)C)N(C)C(=O)C2(CCCC2)NC(=O)[C@H](Cc2cccc(F)c2)N(C)C(=O)[C@H](CCc2ccc(C(F)(F)F)c(Cl)c2)NC(=O)CN(C)C(=O)[C@H](CC2CCCCC2)N(C)C(=O)CN(C)C(=O)CN(C)C1=O [Compound 945] ([NMeA]I[Sar][Sar][NMeCha][Sar][hPhe(3-Cl-4-CF3)][NMePhe(3-F)][Ac5c][NMeV][NMeD]-Piperidide; lactam N-11) | 9.8 |
| CC[C@H](C)[C@@H]1NC(=O)[C@H](CC(C)C)N(C)C(=O)C[C@@H](C(=O)N2CCCCC2)N(C)C(=O)[C@H](C2CCCCC2)N(C)C(=O)C2(CCCC2)NC(=O)[C@H](COCc2cncc(F)c2)N(C)C(=O)[C@H](CCc2ccc(C(F)(F)F)c(Cl)c2)NC(=O)CN(C)C(=O)[C@H](CC2CCCCC2)N(C)C(=O)CN(C)C(=O)CN(C)C1=O [Compound 950] ([NMeL]I[Sar][Sar][NMeCha][Sar][hPhe(3-Cl-4-CF3)][NMeS](X47)[Ac5c][NMeChg][NMeD]-Piperidide; lactam N-11) | 9 |
| CC[C@H](C)[C@@H]1NC(=O)[C@H](CC(C)C)N(C)C(=O)C[C@@H](C(=O)N2CCCCC2)N(C)C(=O)[C@H](C(C)C)N(C)C(=O)C2(CCCC2)NC(=O)[C@@H]2CCCN2C(=O)[C@H](CCc2ccc(Cl)cc2)NC(=O)CN(C)C(=O)[C@H](CC2CCCCC2)N(C)C(=O)[C@@H]2CCCN2C(=O)CN(C)C1=O [Compound 953] ([NMeL]I[Sar]P[NMeCha][Sar][hPhe(4-Cl)]P[Ac5c][NMeV][NMeD]-Piperidide; lactam N-11) | 180 |
| CC[C@H](C)[C@@H]1NC(=O)[C@H](C)N(C)C(=O)C[C@@H](C(=O)N2CCCCC2)N(C)C(=O)[C@H](C2CCCCC2)N(C)C(=O)C2(CCCC2)NC(=O)[C@@H]2CCCN2C(=O)[C@H](CCc2cccc(Cl)c2)NC(=O)CN(C)C(=O)[C@H](CC2CCCCC2)N(C)C(=O)CN(C)C(=O)CN(C)C1=O [Compound 954] ([NMeA]I[Sar][Sar][NMeCha][Sar][hPhe(3-Cl)]P[Ac5c][NMeChg][NMeD]-Piperidide; lactam N-11) | 1.9 |
| CC[C@H](C)[C@@H]1NC(=O)[C@H](CC(C)C)N(C)C(=O)C[C@@H](COCC(=O)NC(C)(C)C)NC(=O)[C@H](C(C)C)N(C)C(=O)C2(CCCC2)NC(=O)[C@@H]2CCCN2C(=O)[C@H](CCc2ccc(C(F)(F)F)c(Cl)c2)NC(=O)CN(C)C(=O)[C@H](CC2CCCCC2)N(C)C(=O)CN(C)C(=O)CN(C)C1=O [Compound 955] ([NMeL]I[Sar][Sar][NMeCha][Sar][hPhe(3-Cl-4-CF3)]P[Ac5c][NMeV]; linker N-C via X5) | 26 |
| CC[C@H](C)[C@@H]1NC(=O)[C@H](CC(C)C)N(C)C(=O)C[C@@H](C)N(C)C(=O)[C@H](C2CCCC2)N(C)C(=O)C2(CCC2)NC(=O)[C@@H]2CC(F)(F)CN2C(=O)[C@H](CCc2ccc(C(F)(F)F)c(Cl)c2)NC(=O)CN(C)C(=O)[C@H](CC2CCCCC2)N(C)C(=O)CN(C)C(=O)CN(C)C1=O [Compound 962] (cyclo([Ac4c][NMeGly(cPent)][NMedβ3hAla][NMeL]I[Sar][Sar][NMeCha][Sar][hPhe(3-Cl-4-CF3)][Pro(4,4-F2)])) | 7.8 |
| CC[C@H](C)[C@@H]1NC(=O)[C@H](CC(C)C)N(C)C(=O)C[C@@H](C(=O)N2CCCCC2)N(C)C(=O)[C@H](CC(C)C)NC(=O)C(C)(C)N(C)C(=O)[C@H](CC(C)C)NC(=O)[C@H](CCc2ccc(C(F)(F)F)c(F)c2)NC(=O)CN(C)C(=O)[C@H](CC2CCCCC2)N(C)C(=O)CN(C)C(=O)CN(C)C1=O [Compound 969] ([NMeL]I[Sar][Sar][NMeCha][Sar][hPhe(3-F,4-CF3)]L[NMeAib]L[NMeD]-Piperidide; lactam N-11) | 2 |
| CC[C@H](C)[C@@H]1NC(=O)[C@H](CC(C)C)N(C)C(=O)C[C@@H](C)NC(=O)[C@H](C(C)C)N(C)C(=O)C2(CCCC2)NC(=O)[C@@H]2CCCN2C(=O)[C@H](CCc2ccc(C(F)(F)F)c(Cl)c2)NC(=O)CN(C)C(=O)[C@H](CC2CCCCC2)N(C)C(=O)CN(C)C(=O)CN(CC(C)C)C1=O [Compound 970] (cyclo([Ac5c][NMeV][d(β3hA)][NMeL]I[Nleu][Sar][NMeCha][Sar][hPhe(3-Cl-4-CF3)]P)) | 250 |
| CCCOC[C@H]1C(=O)N(C)CC(=O)N[C@@H](CCc2ccc(C(F)(F)F)c(Cl)c2)C(=O)N2CCC[C@H]2C(=O)NC2(CCCC2)C(=O)N(C)[C@@H](C2CCCC2)C(=O)N(C)[C@H](C(=O)N2CCOCC2)CC(=O)N(C)[C@@H](CC(C)C)C(=O)N[C@@H]([C@@H](C)CC)C(=O)N(C)[C@@H](C)C(=O)N2CC[C@H]2C(=O)N1C [Compound 974] ([NMeL]I[NMeA][Aze][NMeS](Propyl)[Sar][hPhe(3-Cl-4-CF3)]P[Ac5c][NMeGly(cPent)][NMeD]-Morpholide; lactam N-11) | 0.91 |
| CC[C@H](C)[C@@H]1NC(=O)[C@H](CC(C)C)N(C)C(=O)C[C@@H](C)NC(=O)[C@H](C(C)C)N(C)C(=O)C2(CCCC2)NC(=O)[C@@H]2CCCN2C(=O)[C@H](CCc2ccc(C(F)(F)F)c(Cl)c2)NC(=O)CN(C)C(=O)[C@H](Cc2cccc(C#N)c2)N(C)C(=O)CN(C)C(=O)CN(C)C1=O [Compound 975] (cyclo([Ac5c][NMeV][d(β3hA)][NMeL]I[Sar][Sar][NMePhe(3-CN)][Sar][hPhe(3-Cl-4-CF3)]P)) | 22 |
